Data as given in the supplement of paper PMC10307832.

Tests used:
Experiment in all cases: relative viability (nuclei count vs DMSO), 5 days (fraction); higher = more cells survive
[1] = compound: C1CC(C2=C(C1)C3=C(N2)C=CC(=C3)Cl)C(=O)N [Selisistat] + Cc1cc(Nc2cc(N3CCN(C)CC3)nc(Sc3ccc(NC(=O)C4CC4)cc3)n2)n[nH]1 [Tozasertib] (partner 0.1 µM)
Procedure, shortened: (§1)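 Lung cancer cell lines were seeded in 1536-well plates and dosed by pin tool the next day, with either a single drug or a fixed anchor-drug dose combined with five library-drug doses (not always all listed) spaced in √10 steps. Five days later, one step fixed the cells and stained their nuclei (final 0.05% Triton X-100, 1% formaldehyde, 1 ug/ml Hoechst), and nuclei were counted on 4× images. Relative viability is the nuclei count in treated wells divided by the count in vehicle wells, and each value is the median of duplicate plates.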

[2] = compound: C1CC(C2=C(C1)C3=C(N2)C=CC(=C3)Cl)C(=O)N [Selisistat] + CS(=O)(=O)N1CCN(Cc2cc3nc(-c4cccc5[nH]ncc45)nc(N4CCOCC4)c3s2)CC1 [Pictilisib] (partner 1 µM)
Procedure, shortened: as §1

[3] = compound: C1CC(C2=C(C1)C3=C(N2)C=CC(=C3)Cl)C(=O)N [Selisistat] + C[C@]1(O)C[C@@H](c2nc(-c3ccc4ccc(-c5ccccc5)nc4c3)c3c(N)nccn32)C1 [Linsitinib] (partner 1 µM)
Procedure, shortened: as §1

[4] = compound: C1CC(C2=C(C1)C3=C(N2)C=CC(=C3)Cl)C(=O)N [Selisistat] + COc1cccc2cc(-c3nc([C@H]4CC[C@H](C(=O)O)CC4)n4ncnc(N)c34)[nH]c12 [OSI-027] (partner 0.5 µM)
Procedure, shortened: as §1

| Cell Line | relative viability ([1]; first compound 0.4 µM) | relative viability ([1]; first compound 1.265 µM) | relative viability ([1]; first compound 4 µM) | relative viability ([1]; first compound 12.65 µM) | relative viability ([1]; first compound 40 µM) | relative viability ([2]; first compound 0.4 µM) | relative viability ([2]; first compound 1.265 µM) | relative viability ([2]; first compound 4 µM) | relative viability ([2]; first compound 12.65 µM) | relative viability ([2]; first compound 40 µM) | relative viability ([3]; first compound 0.4 µM) | relative viability ([3]; first compound 1.265 µM) | relative viability ([3]; first compound 4 µM) | relative viability ([3]; first compound 12.65 µM) | relative viability ([3]; first compound 40 µM) | relative viability ([4]; first compound 0.4 µM) | relative viability ([4]; first compound 1.265 µM) | relative viability ([4]; first compound 4 µM) | relative viability ([4]; first compound 12.65 µM) | relative viability ([4]; first compound 40 µM) |
| --- | --- | --- | --- | --- | --- | --- | --- | --- | --- | --- | --- | --- | --- | --- | --- | --- | --- | --- | --- | --- |
| NCI-H1666 | 0.631 | 0.591 | 0.594 | 0.589 | 0.541 | 0.421 | 0.401 | 0.312 | 0.423 | 0.318 | 1.18 | 0.743 | 0.902 | 0.823 | 0.605 | 0.794 | 0.744 | 0.841 | 0.673 | 0.711 |
| NCI-H1734 | 0.278 | 0.265 | 0.283 | 0.263 | 0.228 | 0.479 | 0.488 | 0.404 | 0.486 | 0.445 | 0.956 | 0.913 | 0.913 | 0.846 | 0.828 | 0.616 | 0.636 | 0.491 | 0.545 | 0.685 |
| NCI-H1755 | 0.635 | 0.613 | 0.621 | 0.525 | 0.61 | 0.439 | 0.414 | 0.363 | 0.451 | 0.443 | 1.11 | 1.04 | 0.993 | 1.02 | 1.05 | 0.745 | 0.736 | 0.739 | 0.686 | 0.746 |
| NCI-H1793 | 0.324 | 0.395 | – | 0.326 | 0.582 | 0.311 | 0.275 | – | 0.287 | 0.516 | 0.977 | 0.822 | – | 1.01 | 1.17 | 0.28 | 0.245 | – | 0.299 | 0.345 |
| NCI-H1915 | 0.436 | 0.41 | 0.374 | 0.339 | 0.41 | 0.913 | 0.965 | 0.533 | 0.892 | 0.95 | 1.15 | 1.09 | 1.14 | 1.08 | 1.13 | 0.678 | 0.646 | 0.425 | 0.605 | 0.646 |
| NCI-H1944 | 0.273 | 0.243 | – | 0.231 | 0.256 | 0.335 | 0.363 | – | 0.346 | 0.395 | 1.15 | 1.17 | – | 1.21 | 1.18 | 0.485 | 0.394 | – | 0.433 | 0.441 |
| NCI-H1975 | 0.715 | 0.63 | 0.69 | 0.48 | 0.396 | 0.322 | 0.315 | 0.236 | 0.301 | 0.265 | 0.849 | 0.805 | 0.871 | 0.831 | 0.813 | 0.678 | 0.718 | 0.62 | 0.659 | 0.626 |
| NCI-H1993 | 0.58 | 0.579 | 0.57 | 0.569 | 0.539 | 0.702 | 0.81 | – | 0.828 | 0.854 | 0.719 | 0.72 | – | 0.648 | 0.773 | 0.506 | 0.584 | 0.618 | 0.554 | 0.542 |
| NCI-H2009 | 0.743 | 0.734 | 0.765 | 0.694 | 0.744 | 0.928 | 0.827 | 0.323 | 0.609 | 0.795 | 1.19 | 1.17 | 1.19 | 1.1 | 1.18 | 0.659 | 0.662 | 0.424 | 0.509 | 0.535 |
| NCI-H2023 | 0.417 | 0.34 | 0.286 | 0.263 | 0.307 | 0.25 | 0.265 | 0.201 | 0.255 | 0.222 | 0.686 | 0.581 | 0.662 | 0.735 | 0.569 | 0.492 | 0.405 | 0.347 | 0.401 | 0.406 |
| NCI-H2085 | 0.852 | 0.779 | 0.697 | 0.805 | 0.806 | 0.524 | 0.406 | 0.454 | 0.575 | 0.467 | 0.985 | 1 | 0.795 | 0.803 | 0.902 | 0.822 | 0.733 | 0.397 | 0.79 | 0.921 |
| NCI-H2087 | 0.247 | 0.236 | – | 0.164 | 0.272 | 0.977 | 0.911 | 0.321 | 0.873 | 0.841 | 0.953 | 0.957 | 0.885 | 0.737 | 0.818 | 0.646 | 0.645 | – | 0.516 | 0.652 |
| NCI-H2126 | 0.852 | 0.819 | 0.825 | 0.841 | 0.867 | 0.525 | 0.496 | 0.398 | 0.526 | 0.584 | 0.807 | 0.663 | 0.686 | 0.758 | 0.804 | 0.781 | 0.639 | 0.609 | 0.62 | 0.768 |
| NCI-H2228 | 0.315 | 0.223 | 0.29 | 0.315 | 0.217 | 0.476 | 0.398 | 0.343 | 0.551 | 0.557 | 0.857 | 0.566 | 0.562 | 0.656 | 0.598 | 0.57 | 0.541 | 0.484 | 0.651 | 0.569 |
| NCI-H2347 | 0.606 | 0.733 | 0.427 | 0.617 | 0.583 | 0.374 | 0.714 | 0.294 | 0.541 | 0.56 | 1.05 | 0.999 | 0.733 | 0.973 | 0.979 | 0.61 | 0.403 | 0.246 | 0.482 | 0.46 |
| NCI-H2405 | 0.784 | 0.752 | 0.719 | 0.763 | 0.722 | 0.431 | – | – | 0.441 | 0.431 | 0.975 | – | – | 0.948 | 0.885 | 0.674 | 0.579 | 0.598 | 0.674 | 0.666 |
| NCI-H3122 | 0.367 | 0.352 | 0.347 | 0.34 | 0.372 | 0.558 | 0.606 | 0.262 | 0.608 | 0.704 | 1.03 | 0.953 | 0.872 | 1.06 | 0.994 | 0.9 | 0.933 | 0.444 | 0.892 | 1.01 |
